Measurements taken from the SangsterLogP compilation.

Legend:
[1] = method code SF-HPLC, from DOI: 10.1016/j.ejps.2004.08.007, PMID: 15567286; details: pH 7.4
[2] = method code SF, from DOI: 10.1016/j.ejps.2004.08.007, PMID: 15567286

Compound	logD [1]	logP [2]
O=C(Nc1cc[nH]c(=O)n1)OCc1ccccc1	1.3	–
O=C(Nc1cc[nH]c(=O)n1)OC12CC3CC(CC(C3)C1)C2	2.9	–
O=Cc1ccc(C(=O)O)cc1	–	1.52
CCCCCCCCOC(=O)Nc1cc[nH]c(=O)n1	3.3	–

Other lines, results leading:

logD [1]	logP [2]	Compound
1.1	–	CC(C)COC(=O)Nc1cc[nH]c(=O)n1
-0.55	–	COC(=O)Nc1cc[nH]c(=O)n1
2.3	–	CCCCCCOC(=O)Nc1cc[nH]c(=O)n1
-0.09	–	CCOC(=O)Nc1cc[nH]c(=O)n1
1.5	–	CC(C)(C)COC(=O)Nc1cc[nH]c(=O)n1
1.1	–	CCCCOC(=O)Nc1cc[nH]c(=O)n1
